Assay results reported in PubChem BioAssay (NCI).
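96-well plates; 48 h exposure; 5 concentrations. Endpoints by linear interpolation between flanking doses. Not reached: highest tested concentration assigned. GI50 marks 50% less growth. TGI marks complete inhibition of growth.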

What was measured:
Assay in all cases: DTP human tumour cell line panel, 48 h
SNB-78 CNS = test system: SNB-78 CNS
RXF-631 renal = test system: RXF-631 renal
DMS 273 small cell lung = test system: DMS 273 small cell lung
M19-MEL melanoma = test system: M19-MEL melanoma
DMS 114 small cell lung = test system: DMS 114 small cell lung
MDA-N = test system: MDA-N
NCI/ADR-RES ovarian = test system: NCI/ADR-RES ovarian
MDA-MB-435 = test system: MDA-MB-435
MDA-MB-231 breast = test system: MDA-MB-231 breast

Structure (SMILES)	TGI (SNB-78 CNS) [µM]	TGI (RXF-631 renal) [µM]	TGI (DMS 273 small cell lung) [µM]	TGI (M19-MEL melanoma) [µM]	TGI (DMS 114 small cell lung) [µM]	GI50 (MDA-N) [µM]	TGI (MDA-N) [µM]	GI50 (NCI/ADR-RES ovarian) [µM]	TGI (NCI/ADR-RES ovarian) [µM]	GI50 (MDA-MB-435) [µM]	TGI (MDA-MB-435) [µM]	GI50 (MDA-MB-231 breast) [µM]	TGI (MDA-MB-231 breast) [µM]
C[N+](C)(C)CC1CCCCC1O (centres undefined)	> 100	> 100	> 100	> 100	–	–	–	–	–	–	–	–	–
COc1ccc(CN2CCC/C=C/CC(Cl)(Cl)C2=O)cc1	–	–	> 100	95.2	71.3	–	–	–	–	–	–	–	–
C[C@H]1CCCC(O)C(O)[C@@H]2C[C@H](O[Si](C)(C)C(C)(C)C)C[C@H]2[C@H](O[Si](C)(C)C(C)(C)C)C(O)C(O)C(=O)O1 (some centres undefined)	–	–	–	–	–	> 100	> 100	27.2	> 100	> 100	> 100	14.2	38.5
CSc1nnc(COc2ccc(Cl)cc2)o1	> 100	–	> 100	> 100	> 100	–	–	–	–	–	–	–	–
Cn1c2c(c3ccccc31)CCN(CCN1CCN(c3cccc(Cl)c3)CC1)C2=O	–	–	> 100	> 100	> 100	–	–	–	–	–	–	–	–
COC(=O)C1(C(=O)OC)CC(=O)c2cc3c(cc2-c2c(cc(OC)c(OC)c2OC)C1)OCO3	–	> 211	> 211	> 211	–	–	–	–	–	–	–	–	–
Cc1c2ccccc2cc2ccc3oc([N+](=O)[O-])cc3c12	> 100	–	> 100	> 100	> 100	–	–	–	–	–	–	–	–
CC(C)(Oc1ccc(/C=C/C(=O)c2ccc(Cl)cc2)cc1)C(=O)Nc1c(Cl)cccc1Cl	–	45.3	–	27.1	33.7	–	–	–	–	–	–	–	–
O=C(N/N=C/c1cccc(F)c1)c1ccncc1	–	–	> 100	–	> 100	–	–	–	–	–	–	–	–
Cc1ccc(-c2nc3nc(-c4ccc(F)cc4)nc(N4CCCNCC4)c3o2)cc1	–	–	–	–	–	–	–	1.91	3.63	1.71	3.13	1.63	3.11
CCCCCCCCCCCCCCCC[N+]1(C)CCOCC1	–	–	–	–	–	–	–	18.1	44.9	–	–	1.39	3.94
N#CNC(N)=Nc1ccc(Cl)cc1	–	–	–	–	–	–	> 100	–	> 100	–	> 100	–	> 100
Cc1ccc(NC(=O)c2cc(S(=O)(=O)N3C(=O)NC(=O)NS3(=O)=O)c(S)cc2Cl)cc1	–	–	–	–	–	–	–	> 100	> 100	17.1	35.7	20.4	57.9
CNC(=O)c1nn(C)c2c1C(C)(C)Cc1cnc(Nc3ccc(N4CCN(C)CC4)cc3)nc1-2	–	–	–	–	–	–	–	3	> 10	0.693	> 10	0.523	> 10
COCCOCCOC1=CC(=O)c2c(O)ccc(O)c2C1=O	–	–	–	–	–	–	0.289	–	4.85	–	0.108	–	2.83
CC(C)(C)OC(=O)NCCCCCCCn1c2c(c3ccccc3c1=O)C(=O)c1ccccc1-2	–	–	–	–	–	–	–	26.1	> 100	82	> 100	29.5	> 100

Structure (SMILES)	TGI (SNB-78 CNS) [µM]	TGI (RXF-631 renal) [µM]	TGI (DMS 273 small cell lung) [µM]	TGI (M19-MEL melanoma) [µM]	TGI (DMS 114 small cell lung) [µM]	GI50 (MDA-N) [µM]	TGI (MDA-N) [µM]	GI50 (NCI/ADR-RES ovarian) [µM]	TGI (NCI/ADR-RES ovarian) [µM]	GI50 (MDA-MB-435) [µM]	TGI (MDA-MB-435) [µM]	GI50 (MDA-MB-231 breast) [µM]	TGI (MDA-MB-231 breast) [µM]
O=C1CCCCN1CCCCC#Cc1cccc(C#Cc2cccnc2)c1	–	–	–	–	–	–	–	17.5	85.4	28.9	> 100	12	27.7
O=C(O)[C@H](c1ccccc1)[C@@H](C(=O)O)c1ccccc1	–	–	–	–	–	–	> 100	–	> 100	–	> 100	–	> 100
O=C(N/N=C/c1ccccc1O)c1ccccc1	–	–	–	–	–	–	–	1.94	27.6	4.68	> 100	5.11	> 100
COc1cc(NCCCCCCCNC(C)C)c2nccc(C)c2c1	–	–	–	–	–	–	–	14.3	28.4	6.95	21.2	9.45	22.4
O=c1cc(/C=C/c2ccccc2)[nH]c2cc3c(cc12)OCO3	–	–	–	–	–	–	6.23	–	5.38	–	4.29	–	9.18
O=S(=O)(NCCCNc1nccc(-c2c(-c3ccc(F)cc3)nc3sccn23)n1)c1ccc2ccccc2c1	–	–	–	–	–	–	–	3.89	> 100	3.67	> 100	3.8	> 100
O=C(/C=C/c1ccccc1)CC(=O)CCC(=O)Nc1ccc(Cl)cc1	> 100	–	> 100	> 100	> 100	–	–	–	–	–	–	–	–
COC(=O)C1=Nc2c(C)nn(-c3ccccc3)c2N=C(c2ccccc2)C1	–	–	–	–	–	–	> 10	–	> 10	–	> 10	–	> 10
CCCCn1c(-c2ccc(C(=O)O/N=C(\N)c3ccc4c(c3)OCO4)cc2)nc(-c2ccccc2)c1-c1ccccc1	–	–	–	–	–	–	–	1.52	4.48	1.93	3.9	2.99	> 100
C=C1C(=O)O[C@H]2[C@H]1CC/C(COC(=O)NCC(C)c1ccc(CC(C)C)cc1)=C\CC[C@@]1(C)O[C@@H]21 (some centres undefined)	–	–	–	–	–	–	–	3.54	10.1	1.24	4.86	0.612	1.27
CCCCN(CC)CC(C(C)=O)c1c(O)c2ccccc2oc1=O (centres undefined)	> 100	–	> 100	> 100	> 100	–	–	–	–	–	–	–	–
CC(C)CCC1(CCN)C(=O)NC(=O)NC1=O	–	–	–	–	–	–	> 100	–	> 100	–	> 100	–	> 100
Cc1cc(N(CCC#N)CCC#N)ccc1/C=C(\NC(=O)/C=C/c1ccccc1)C(=O)NN	> 100	–	> 100	> 100	> 100	–	> 100	–	> 100	–	> 100	–	> 100
COc1ccc2c(c1)/C(=C/c1cc(OC)c(OC)c(OC)c1)C(=O)N2	–	–	–	–	–	–	–	0.142	1.74	0.0318	0.253	1.51	66.8
O=C(O)c1ccccc1/C=N/N=C1c2ccccc2-c2ccccc21	–	–	–	–	–	–	> 100	–	> 100	–	> 100	–	> 100
C=C1C[C@@H]2CC[C@@]34C[C@H]5O[C@H]6[C@@H](O3)[C@H]3O[C@H](CC[C@@H]3O[C@H]6[C@@H]5O4)CC(=O)C[C@@H]3[C@@H](OC)[C@@H](C[C@H](O)CN)O[C@H]3C[C@H]3O[C@@H](CC[C@@H]1O2)C[C@@H](C)C3=C	–	–	–	–	–	–	–	2.69	> 100	< 0.01	< 0.01	< 0.01	> 53.5
